Reference: doi:10.1101/2023.10.24.563163v2, “Targeting cancer with small molecule pan-KRAS degraders” (biorxiv, 2024)
Like-named read-outs stand apart in the source and are kept apart here.

How the values were obtained:
[1] = molecular target: T1, KRAS^G12D (Homo sapiens, UniProt P01116, G12D); design: endogenous; KRAS degradation by capillary electrophoresis immunodetection; settings: degrader; read-out: DC50 24 h GP5d
Method: Protein Detection by Capillary Electrophoresis Cells (50 000) were seeded the day before treatment into 96-well clear-flat bottom plates and incubated overnight (37 °C, humidified tissue culture incubator, 5% CO2). Compounds were added from DMSO stock solution using a digital dispenser and cells are incubated at 37 °C as specified (24 hours for KRAS degradation, 6 hours for determination of pERK levels). At the end of the incubation, medium was removed, cells washed with ice cold PBS, PBS removed and 50 µL lysis buffer (Meso Scale Discovery #R60TX-2) supplemented with 1:100 protease inhibitor solution, 1:100 phosphatase inhibitor I, 1:100 phosphatase inhibitor II (Meso Scale Discovery #R70AA-1), 0.5 µL/mL Benzonase (Novagen #70664-3) and 10 mM dithiothreitol added to each well. Plates with lysis buffer were immediately transferred to -80 °C freezer for at least 2 hours and then thawed on ice. Lysates were transferred to a 96 well V-bottom plate and insoluble debris was pelleted by centrifugation for 20 min. at 4 000 rpm. 40 µL of the supernatant were transferred to a fresh Eppendorf PCR plate. Analysis of protein levels was conducted using the Wes System, ProteinSimple (https://www.bio-techne.com/) as specified by the manufacturer. Briefly, Wes Master Mix (12-230 kDa WES Separation Module, 8 × 25 capillary cartridges, ProteinSimple #SM-W004) and molecular weight markers were prepared as specified in the manufacturer’s recommendations. To detect primary antibodies, anti-rabbit (Protein Simple #DM-001) or anti-mouse (Protein Simple #DM-002) detection modules were used. 7.2 µL lysate + 1.8 µL master mix were combined and heated to 95 °C for 5 min.

[2] = molecular target: T2, HiBiT-KRAS^G12D (Homo sapiens, UniProt P01116, G12D); design: HiBiT-KRAS degradation, split nanoluciferase lytic detection; settings: degrader
T2 construct: HiBiT-tagged
Method: (§1) This formula was derived from the Growth Inhibition (GI) calculation used in the National Cancer Institute’s NCI-60 high-throughput screen. KRAS Degradation Assays via Detection of Split Nanoluciferase (HiBiT) To assess PROTAC-mediated degradation of HiBiT-tagged KRAS constructs, cells were seeded at 25 000 cells per well in culture medium into white bottom opaque 96-well plates (Perkin Elmer cat no. 5680). Plates were incubated at 37 °C, 5% CO2 in a humidified incubator over night to allow the cells to adhere. Test compounds (10 mM stock in DMSO) were added at logarithmic dose series using the HP Digital Dispenser D300 (Tecan), normalizing for added DMSO. […] Following incubation, 100 µL per well Promega Nano-Glo HiBiT lytic detection reagent mix (Promega Nano-Glo HiBiT Lytic Detection System #N3050), prepared according to the manufacturer´s instructions in the kit, were added. To allow for adequate cell lysis, plates were incubated on an orbital shaker for 15 min. and further incubated 30 min. at room temperature. Upon completion of cell lysis, luminescence was measured using an Envision plate reader using the Ultrasensitive Luminescence Protocol for 96-well plates. Luminescence levels were normalized by the values obtained with DMSO-treated samples and plotted as percent of DMSO control. DC50 values were computed using a three parametric logistic model. Dmax values represent the maximal extent of degradation observed and are stated as percent of control treatments.

[3] = molecular target: KRAS^G12V (Homo sapiens, UniProt P01116, G12V); design: endogenous; KRAS degradation by capillary electrophoresis immunodetection; settings: read-out: DC50 24 h SW620 (converted)
[4] = molecular target: T2, HiBiT-KRAS^G12D; assay: cell-based; design: HiBiT-KRAS degradation, split nanoluciferase lytic detection; settings: GP5d; read-out: Dmax 24 h GP5d HiBiT [%]
Method: as §1

[5] = test system: SW620; assay: cells; design: DUSP6 modulation; settings: Homo sapiens, SW-620, 6 h; read-out: IC50 DUSP6
From the text: (§2) Next, we set out to test the ability of a single pan-KRAS degrading molecule, compound 4, to selectively suppress oncogenic signaling and proliferation in cancer cell lines driven by diverse KRAS mutants. To this end, we first confirmed degradation of KRAS by compound 4 in KRAS-dependent (GP2d, SW620 and NCI-H358 expressing KRAS^G12D, - G12V or -G12C, respectively) as well as in KRAS independent (A-375, HEK293) cell lines (Fig. 3A, fig. S4A). […] Both inhibition and degradation repressed the established markers of MAPK signaling pERK (fig. S4B-D) and DUSP6 (Fig. 3B, fig. S4E) in KRAS dependent cell lines. […] Neither degradation nor inhibition had appreciable antiproliferative effects in the KRAS independent cell lines A-375 and HEK293 (Fig. 3C, fig. S4F).

[6] = test system: GP2d; assay: cells; design: DUSP6 modulation; settings: GP2d, 6 h; read-out: IC50 DUSP6
From the text: as §2

[7] = test system: NCI-H358; assay: cells; design: DUSP6 modulation; settings: Homo sapiens, NCI-H358, 6 h; read-out: IC50 DUSP6
From the text: as §2

[8] = molecular target: T1, KRAS^G12D; design: endogenous; KRAS degradation by capillary electrophoresis immunodetection; settings: read-out: DC50 24 h GP2d

T1 sequence (P01116 whole entry G12D): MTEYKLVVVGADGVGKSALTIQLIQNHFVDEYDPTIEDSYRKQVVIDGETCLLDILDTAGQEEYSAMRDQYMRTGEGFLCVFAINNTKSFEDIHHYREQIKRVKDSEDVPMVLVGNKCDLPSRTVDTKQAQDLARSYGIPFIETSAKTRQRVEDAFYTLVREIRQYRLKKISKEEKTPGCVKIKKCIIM
T2 sequence (P01116 whole entry G12D): as above
KRAS^G12V, sequence (P01116 whole entry G12V): as the sequence (P01116 whole entry G12D) above, with D12V counted along it

Q: For Cc1ncsc1-c1ccc(CNC(=O)[C@@H]2C[C@@H](O)CN2C(=O)[C@@H](NC(=O)COCCCN2CCCN(c3nccc(-c4noc([C@@]5(C)CCCc6sc(N)c(C#N)c65)n4)n3)[C@@H](C)C2)C(C)(C)C)cc1 [compound 2], which DC50 [1] is on record?
A: Its DC50 is 607 nM.

Q: What about the DC50 ([2]; read-out: DC50 24 h GP5d HiBiT) of the same compound?
A: The DC50 was 494 nM.

Q: What about the DC50 [3] of the same compound?
A: Its DC50 is 1200 nM.

Q: What about the Dmax [4] of the same compound?
A: Its Dmax is 100%.

Q: Which IC50 [5] does the source give for Cc1ncsc1-c1ccc(CNC(=O)C2CC(O)CN2C(=O)C(c2cc(OCCCCN3CCCN(c4nccc(-c5noc(C6(C)CCCc7sc(N)c(C#N)c76)n5)n4)C(C)C3)no2)C(C)C)cc1 (centres unmarked) [compound 5] here?
A: Its IC50 is 429 nM.

Q: What about the IC50 [6] of the same compound?
A: Its IC50 is 245 nM.

Q: And the IC50 [7]?
A: Its IC50 is 138 nM.

Q: For Cc1ncsc1-c1ccc(CNC(=O)[C@@H]2C[C@@H](O)CN2C(=O)[C@@H](NC(=O)CCCCCN2CCCN(c3nccc(-c4noc([C@@]5(C)CCCc6sc(N)c(C#N)c65)n4)n3)[C@@H](C)C2)C(C)(C)C)cc1 [compound 3], which DC50 [8] is on record?
A: The DC50 was 76.3 nM.

Q: What about the DC50 [1] of the same compound?
A: Its DC50 is 31.8 nM.

Q: What about the IC50 [5] of the same compound?
A: The IC50 was 205 nM.

Q: And the IC50 [6]?
A: The IC50 was 129 nM.

Q: What about the IC50 [7] of the same compound?
A: The IC50 was 248 nM.

Q: And the DC50 ([2]; read-out: DC50 24 h GP5d HiBiT)?
A: The DC50 was 68.1 nM.

Q: What about the DC50 [3] of the same compound?
A: Its DC50 is 278 nM.

Q: And the Dmax [4]?
A: The Dmax was 95%.

Q: How did the DC50 [8] turn out when Cc1ncsc1-c1ccc([C@H](CO)NC(=O)[C@@H]2C[C@@H](O)CN2C(=O)[C@H](C(C)C)n2cc(OCCCCN3CCCN(c4nccc(-c5noc([C@@]6(C)CCCc7sc(N)c(C#N)c76)n5)n4)[C@@H](C)C3)nn2)cc1 [compound 7, ACBI3] was run?
A: Its DC50 is 3.9 nM.

Q: What about the DC50 [1] of the same compound?
A: The DC50 was 2.1 nM.

Q: And the DC50 ([2]; read-out: DC50 24 h GP5d HiBiT)?
A: The DC50 was 0.7 nM.

Q: What about the DC50 [3] of the same compound?
A: The DC50 was 6.9 nM.

Q: And the Dmax [4]?
A: Its Dmax is 95%.

Q: Which results are given for Cc1ncsc1-c1ccc(CNC(=O)[C@@H]2C[C@@H](O)CN2C(=O)[C@@H](c2cc(OCCCCN3CCCN(c4nccc(-c5noc([C@@]6(C)CCCc7sc(N)c(C#N)c76)n5)n4)[C@@H](C)C3)no2)C(C)C)cc1 [compound 4]?
A: DC50 [8]: 3.6 nM; DC50 [1]: 0.9 nM; IC50 [5]: 6.2 nM; IC50 [6]: 3.3 nM; IC50 [7]: 11.4 nM; DC50 ([2]; 10% human serum, read-out: DC50 24 h GP5d HiBiT 10% human serum): 1.9 nM; DC50 ([2]; 10% mouse serum, read-out: DC50 24 h GP5d HiBiT 10% mouse serum): 33.1 nM; DC50 ([2]; read-out: DC50 24 h GP5d HiBiT): 1.4 nM; Dmax [4]: 94%
